Laboratory results: patent publication US11390580B2, “Anti-fungals targeting the synthesis of fungal shingolipids” (THE RESEARCH FOUNDATION FOR THE STATE UNIVERSITY OF NEW YORK, priority 2014, dated 2022)
In brackets after ≈: the same amount, converted by molar mass. Several values for one entry are separate records, joined by “and”; a condition that tells them apart may be missing. Identical values can stand only once. Entries after “also recorded” stand apart in the source; their conditions may differ. Like-named read-outs stand apart in the source and are kept apart here.

What was measured:
Candida albicans = assay: In vitro susceptibility testing (MIC); format: cell-based
Histoplasma capsulatum = format: cell-based
C. neoformans [1] = assay: Resistance assay, daily passages in sub-MIC drug; conditions: 15 days of passages below the MIC
[2] = tested on: synthesis of GlcCer in C. neoformans cells; assay: In vivo labeling with 3H palmitate, TLC of GlcCer; conditions: 3H palmitate labeling
Candida spp = assay: In vitro susceptibility testing; format: cell-based; conditions: most Candida spp examined
Blastomyces dermatitis = assay: In vitro susceptibility testing (MIC); format: cell-based; conditions: for BHBM 96 Hr 50%: MIC, FTL strains
Sld8 = assay: In vitro Sld8 activity; format: biochemical, C. neoformans
C. neoformans [3] = assay: In vitro killing assay (time-kill, CFU); format: cell-based, Cryptococcus neoformans
Experimental: At the illustrated time points, aliquots were taken and diluted and 100 μL was plated onto yeast peptone dextrose (YPD) plates. YPD plates were incubated in a 30° C. incubator and, after 72 hours, colony forming units (CFU) were counted and recorded.

C. neoformans H99 = assay: Animal studies for cryptococcosis (intranasal infection); format: in vivo, mice
Pneumocystis jiroveci = assay: In vitro testing by ATP content (luciferin-luciferase); conditions: for inhibition at 0.1 µg/mL / inhibition at 1 µg/mL / inhibition at 10 µg/mL / inhibition at 100 µg/mL: read-out: percentage inhibition of ATP
[4] = tested on: Golgi morphology of C. neoformans; assay: C6-NBD-ceramide staining of the Golgi; format: cell-based, Cryptococcus neoformans; conditions: 4 μg/ml
Experimental: The Golgi apparatus of C. neoformans and C. albicans was stained with C6-NBD-ceramide using a previously described protocol (Kmetzsch, L. et al. 2011), based on the property that this fluorescent lipid accumulates at the Golgi of either living or fixed cells (Pagano R. E. et al. 1989). […] Cell suspensions were then washed with the same buffer and incubated with C6-NBD-ceramide ([…]) for 16 h at 4° C. The cells were then incubated with bovine serum albumin (BSA, 1%) at 4° C. for 1 h to remove the excess of C6-NBD-ceramide. […] Louis, USA) for 30 min at room temperature. The cells were washed again with PBS and stained cell suspensions were mounted over glass slides as described above and analyzed under an Axioplan 2 (Zeiss, Germany).

[5] = tested on: C. neoformans secreted vesicles; assay: Vesicle secretion measured by vesicular sterols; format: cell-based, Cryptococcus neoformans
Description: (§1) WF, white field; NBD-Cer, NBD-ceramide.

L2 cell line = assay: In vitro toxicity; format: cell-based
Rhizopus oryzae = assay: In vitro susceptibility testing (MIC); format: cell-based
Candida krusei = assay: In vitro susceptibility testing (MIC); format: cell-based; conditions: for BHBM 24 Hr 50% / BHBM 48 Hr 50%: MIC, QC strain
Candida albicans SC-5314 = assay: Animal studies for candidiasis (intravenous infection); format: in vivo, mice
Experimental: For survival studies, 8-week old CBA/J female mice (Jackson Laboratory) were used. Eight mice per treatment or control group were used. Mice were infected by intravenous inoculation of 100 μL containing 1×10^5 cells of Candida albicans SC-5314 strain. […] Untreated mice, received 100 μL of PBS/0.4% DMSO. Mice were feed ad-libitum and monitored closely for sign of discomfort. At the end of the survival study, tissue burden culture was performed in mice that survived the infection. Mice were sacrificed and their organs were extracted and homogenized in 10 ml sterile PBS using homogenizer. Organ homogenates were diluted 10 times in PBS, and 100 μL was plated on YPD agar plates and incubated at 30° C. for 72 hours for CFU count.

Pharmacokinetics of BHBM = format: in vivo, mice; conditions: preliminary studies
[6] = In vitro toxicity, MTT assay; conditions: mouse, J774.16 macrophage cells
[7] = tested on: C. albicans secreted vesicles; assay: Vesicle secretion measured by vesicular sterols; format: cell-based, Candida albicans
Description: as §1

[8] = tested on: synthesis of GlcCer in C. albicans cells; assay: GlcCer synthesis in C. albicans; format: cell-based, Candida albicans
[9] = tested on: C. neoformans sphingolipids; assay: Sphingolipid levels by TLC and lipid mass spectrometry; format: cell-based, Cryptococcus neoformans
Experimental: Labeling fungal cells. […] Samples without drug were included as control. Before lipid extraction, lipid internal standards (C17 ceramide and C17 sphingosine) were added. Lipids were then extracted following the methods of […] and Bligh and Dyer and one fourth of the sample was aliquoted for determination of the inorganic phosphate. The remainder of the sample was subjected to base hydrolysis and then analyzed using LC/MS. Results were normalized with the inorganic phosphate levels.

E. coli DH5α = assay: Antibacterial activity, LB agar well diffusion; conditions: up to 160 μg/mL, 30° C., 24 hr
[10] = TLC, confirmed by mass spectrometry

Cc1ccccc1C(=O)NN=Cc1ccc(O)c(Br)c1 [BHBM, N′-(3-bromo-4-hydroxybenzylidene)-2-methylbenzohydrazide]
in vitro activity (Candida albicans): not active
MIC range (Candida albicans; 3 Fungus Testing Lab strains): >32 µg/mL
MIC range (Candida albicans; 5 MDP Lab strains): >32 µg/mL
in vitro activity (Histoplasma capsulatum): good in vitro activity
MIC range (Histoplasma capsulatum; 10 Fungus Testing Lab strains): 0.125 to 1 µg/mL
development of resistance (C. neoformans [1]): do not develop resistance
inhibition of the synthesis of GlcCer [2]: significantly inhibit the synthesis of GlcCer
in vitro susceptibility (Candida spp): resistant
in vitro activity (Blastomyces dermatitis): good in vitro activity
MIC range (Blastomyces dermatitis; 10 Fungus Testing Lab strains): 0.5 to 1 µg/mL
BHBM 96 Hr 50% (Blastomyces dermatitis): 1 and 2
BHBM 96 Hr 50% (Blastomyces dermatitis; first listing r7-r78): 1 and 0.5
in vitro activity of Sld8 (Sld8): does not inhibit
incubation required to kill about 50% of the cells (C. neoformans [3]): at least 72 hours
type of killing (C. neoformans [3]; time-kill assay): concentration-dependent killing
mice surviving infection (C. neoformans H99; 1.2 mg/Kg/day intraperitoneally, up to 60 days): 90%
fungal burden in brain (C. neoformans H99; 1.2 mg/Kg/day, day 60): No C. neoformans cells were found in brains
fungal burden in lung (C. neoformans H99; 1.2 mg/Kg/day, day 60, compared to infected untreated mice): decrease the fungal burden in the lung
brain histology (C. neoformans H99; day 60): no fungal cells and normal structure
lung histology (C. neoformans H99; day 60): granulomatous response limited in few areas of the lung
IC50 (Pneumocystis jiroveci; 24 h, read-out: IC50, P. jiroveci): 0.912 µg/mL (≈ 2.74 µM)
inhibition at 0.1 µg/mL (Pneumocystis jiroveci; 24 h): 16.1%
inhibition at 1 µg/mL (Pneumocystis jiroveci; 24 h): 51.5%
inhibition at 10 µg/mL (Pneumocystis jiroveci; 24 h): 97%
inhibition at 100 µg/mL (Pneumocystis jiroveci; 24 h): 98.9%
IC50 (Pneumocystis jiroveci; 48 h, read-out: IC50, P. jiroveci): 0.159 µg/mL (≈ 0.477 µM)
inhibition at 0.1 µg/mL (Pneumocystis jiroveci; 48 h): 26.2%
inhibition at 1 µg/mL (Pneumocystis jiroveci; 48 h): 92.6%
inhibition at 10 µg/mL (Pneumocystis jiroveci; 48 h): 97.8%
inhibition at 100 µg/mL (Pneumocystis jiroveci; 48 h): 98.6%
IC50 (Pneumocystis jiroveci; 72 h, read-out: IC50, P. jiroveci): 0.074 µg/mL (≈ 0.222 µM)
inhibition at 0.1 µg/mL (Pneumocystis jiroveci; 72 h): 39.1%
inhibition at 1 µg/mL (Pneumocystis jiroveci; 72 h): 87.8%
inhibition at 10 µg/mL (Pneumocystis jiroveci; 72 h): 94.8%
inhibition at 100 µg/mL (Pneumocystis jiroveci; 72 h): 98.1%
IC50 (Pneumocystis jiroveci; 96 h, read-out: IC50, P. jiroveci): 0.072 µg/mL (≈ 0.216 µM)
inhibition at 0.1 µg/mL (Pneumocystis jiroveci; 96 h): 46.2%
inhibition at 1 µg/mL (Pneumocystis jiroveci; 96 h): 77%
inhibition at 10 µg/mL (Pneumocystis jiroveci; 96 h): 90.1%
inhibition at 100 µg/mL (Pneumocystis jiroveci; 96 h): 98.9%
IC50 (Pneumocystis jiroveci; read-out: activity class by IC50, P. jiroveci): 0.011 to 0.099 µg/mL (≈ 0.033 to 0.297 µM)
Golgi morphology [4]: significant alterations in the Golgi morphology
secreted vesicles measured by sterol content [5]: marked reductions of secreted vesicles
toxicity (L2 cell line): slight to moderate toxicity
in vitro activity (Rhizopus oryzae): good in vitro activity
MIC range (Rhizopus oryzae; 3 Fungus Testing Lab strains): 2 µg/mL (≈ 6 µM)
MIC range (Candida krusei; 1 MDP Lab strain): 32 µg/mL (≈ 96 µM)
MIC range (Candida krusei; ATCC 6258, MDP Lab): 16 µg/mL (≈ 48 µM)
BHBM 24 Hr 50% (Candida krusei): 4
BHBM 48 Hr 50% (Candida krusei): 8
BHBM 24 Hr 50% (Candida krusei; first listing r7-r78): 4
BHBM 48 Hr 50% (Candida krusei; first listing r7-r78): 8
MIC (Candida krusei; Pichia kudriavzevii, read-out: MIC (moderately active)): 8 to 16 µg/mL (≈ 24 to 48 µM)
MIC range (Candida krusei; QC, Fungus Testing Lab): 8 µg/mL (≈ 24 µM)
mice alive (Candida albicans SC-5314; 1.2 mg/kg/day intraperitoneally, after 21 days of infection): 62.5%
clearance of infection (tissue burden) (Candida albicans SC-5314; day 21, surviving treated mice): able to clear C. albicans infection
tissue distribution, brain (Pharmacokinetics of BHBM): found in the brain tissue
EC50 at 48 h [6]: 50 µg/mL (≈ 150 µM)
secreted vesicles measured by sterol content [7]: marked reductions of secreted vesicles
synthesis of GlcCer [8]: inhibited in a dose dependent manner
sphingosine-1-phosphate level ([9]; TLC): increased
GlcCer level [9, 10]: decreased
dihydroceramide level [9, 10]: increased
sphingosine level [9, 10]: increased; also recorded: accumulation of sphingosines
level of IPC ([9]; data not shown): does not decrease the level of IPC
zone of inhibition (E. coli DH5α): No zone of inhibition
